# Reference: patent US20240000746A1, “New Cooling Agents and Preparations Containing Them” (Symrise AG, priority 2020, published 2024)
# Values joined by “and” are separate entries in the source; they are usually repeats but may differ in a detail not shown here. Identical values can stand only once.
# Molecular target: T1, human TRPM8 receptor (Homo sapiens, UniProt Q7Z2W7)
# T1 construct: expressed in transfected cells
# Assay: Assay on TRPM8 modulators: Ca2+ signal (Fluo-4) in HEK293 cells stably transfected with human TRPM8
# Type: cell-based
# Parameters: Relative TRPM8 activation (%): concentration or dose not given beside the values
# Conditions: not given
# From the text: The starting point for cloning the human TRPM8 receptor is an LnCaP cDNA bank. This is commercially available (e.g. BioChain, Hayward, USA) or can be produced from the androgene-sensitive human prostate adenocarcinoma cell line LnCaP (e.g. ATCC, CRL1740 or ECACC, 891 1021 1) using standard kits.
# The coding TRPM8 sequence (see e.g. http://www. ncbi.nlm.nih.gov/entrez/viewer.fcgi?db=nuccore&id=109689694) can be PCR amplified and cloned using standard methods. The human TRPM8 gene isolated in this way was used to produce the plasmid plnd_M8. Alternatively, the TRPM8 gene can also be produced synthetically.
# As a test cell system, a stably transfected HEK293 cell line was produced with human TRPM8 DNA. Preference is given to HEK293, which offers the possibility of inducing TRPM8 expression with tetracycline via the introduced plasmid.
# A test similar to the one already described in the literature by Behrendt H. J. et al., Br. J. Pharmacol. 141, 2004, 737-745, is performed. The agonisation or antagonisation of the receptor can be quantified by means of a Cab-sensitive dye (e.g. FURA, Fluo-4 etc.). Agonists alone cause an increase in the Ca^2+ signal; antagonists cause a reduction in the Ca^2+ signal in the presence of e.g. menthol (in each case detected via the dye Fluo-4, which has different fluorescence properties due to Ca^2+ ions).
# First, a fresh culture of transformed HEK cells is prepared in cell culture flasks in a manner known per se. The HEK293-TRPM8 test cells are detached from the cell culture flasks using trypsin and 40,000 cells/well are seeded with 100 μl medium in 96-hole plates (Greiner #655948 poly-D-lysine-coated). Tetracycline is added to the growth medium to induce receptor TRPM8 (DMEM/HG, 10% FCS tetracycline-free, 4 mM L-glutamine, 15 μg/ml blasticidin, 100 μg/ml hygromycin B, 1 μg/ml tetracycline).
# The following day, the cells are loaded with Fluo-4AM dye and the test is performed. The procedure is as follows: Addition of 100 μl/well staining solution Ca-4 Kit (RB 141, Molecular Devices) to each 100 μl medium (DMEM/HG, 10% FCS tetracycline-free, 4 mM L-glutamine, 15 μg/ml blasticidin, 100 μg/ml hygromycin B, 1 μg/ml tetracycline).
# Incubation in incubator, 30 minutes/37° C./5% CO2, 30 minutes/RT.
# Preparation of the test substances (different concentrations in 200 μl HBSS buffer), as well as positive controls (different concentrations of menthol, icilin or lonomycin in 200 μl HBSS buffer) and negative controls (only 200 μl HBSS buffer) addition of the test substances in amounts of 50 μl/well and measurement of the fluorescence change (e.g. in the assay device FLIPR, Molecular Devices or NovoStar, BMG) at 485 nm excitation, 520 nm emission, and evaluation of the potency of the different substances/concentrations and determination of the EC50 values.
# The test substances are used in triplicates in concentrations of 0.1-200 μM in the assay. Normally, the compounds are kept ready in DMSO solutions and diluted down to a maximum DMSO concentration of 2% for the assay.
# With the aid of the assay described, the activity of the active substances is determined in relation to activation of the TRPM8 channel. This is done in a concentration-dependent manner. As a standard, 6 to 10 concentrations are measured for each active substance. From the determined activity values, the EC50 value can be determined as the inflection point of the sigmoidal curve using a mathematical method (4-parameter or 5-parameter logistic curve fitting). These are standard methods of biochemistry that are quite familiar to the skilled person.
# T1 sequence (Q7Z2W7 whole entry): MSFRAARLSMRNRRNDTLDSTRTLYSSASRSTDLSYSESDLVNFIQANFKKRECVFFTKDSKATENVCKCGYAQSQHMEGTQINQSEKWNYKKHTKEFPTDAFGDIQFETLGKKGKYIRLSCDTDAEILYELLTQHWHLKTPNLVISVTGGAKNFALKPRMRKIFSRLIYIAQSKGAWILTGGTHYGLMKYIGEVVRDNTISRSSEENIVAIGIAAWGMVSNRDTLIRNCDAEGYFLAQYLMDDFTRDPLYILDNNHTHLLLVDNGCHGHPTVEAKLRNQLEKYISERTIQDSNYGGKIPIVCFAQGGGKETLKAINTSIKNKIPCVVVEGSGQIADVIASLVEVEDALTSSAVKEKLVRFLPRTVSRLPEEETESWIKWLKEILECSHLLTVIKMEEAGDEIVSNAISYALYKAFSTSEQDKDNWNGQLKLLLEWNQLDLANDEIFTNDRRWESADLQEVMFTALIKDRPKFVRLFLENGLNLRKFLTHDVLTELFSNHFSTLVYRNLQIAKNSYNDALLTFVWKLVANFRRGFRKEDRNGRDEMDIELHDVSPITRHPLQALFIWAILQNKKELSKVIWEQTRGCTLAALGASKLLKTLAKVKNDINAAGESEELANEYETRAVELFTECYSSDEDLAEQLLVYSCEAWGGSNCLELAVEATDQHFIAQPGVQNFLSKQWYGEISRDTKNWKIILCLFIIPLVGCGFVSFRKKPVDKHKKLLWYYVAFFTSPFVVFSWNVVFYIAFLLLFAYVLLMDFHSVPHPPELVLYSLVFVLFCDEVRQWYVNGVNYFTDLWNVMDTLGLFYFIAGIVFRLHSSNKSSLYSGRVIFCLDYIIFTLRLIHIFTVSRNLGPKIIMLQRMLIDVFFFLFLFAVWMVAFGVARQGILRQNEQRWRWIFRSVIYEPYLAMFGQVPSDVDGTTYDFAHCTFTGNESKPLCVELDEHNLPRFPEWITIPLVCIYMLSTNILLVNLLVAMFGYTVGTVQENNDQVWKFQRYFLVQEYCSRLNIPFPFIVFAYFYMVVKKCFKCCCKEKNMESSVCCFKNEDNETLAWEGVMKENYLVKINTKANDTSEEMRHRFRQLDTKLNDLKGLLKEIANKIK
row,Relative TRPM8 activation (%),SMILES
1,−0.8%,CCCC1CCN(c2cc(CNCc3cccc4c3OCO4)ccn2)CC1 [Compound 18 a]
2,3.4%,CCN(Cc1ccnc(N2CCC(C)CC2)c1)Cc1cccc2c1OCO2 [Compound 19 a]
3,3%,c1cc(CNCc2ccnc(-n3cccc3)c2)c2c(c1)OCO2 [Compound 22 a]

# The remaining lines, values behind:
row,SMILES,Relative TRPM8 activation (%)
1,O=C(NCc1cccc2c1OCO2)c1ccnc(N2CCCCC2)c1 [Compound 51 a],0%
2,c1ccc(-c2cc(CNCc3cccc4c3OCO4)cs2)cc1 [Compound 43 a],0%
3,c1ccc(-c2cccc(CNCc3cccc4c3OCO4)c2)nc1 [Compound 22 c],3.6%
4,c1ccc(-c2cc(CNCc3cccc4c3OCO4)co2)cc1 [Compound 31 a],0%
5,Cc1ccc(N2CCC(C(=O)NCc3cccc4c3OCO4)CC2)nc1 [Compound 5 a],2.4%
6,c1cc(CNCc2cc3ccccc3o2)c2c(c1)OCO2 [Compound 32 a],1.3%

# Same assay, conditions: HEK293-TRPM8 cells, Fluo-4; read-out: Activity in vitro assay (EC50)
row,EC50,SMILES
1,115 nM,c1cc(CNCc2ccnc(N3CCCCC3)c2)c2c(c1)OCO2 [Example 1]
2,2630 nM,CC1(C)CCN(c2cc(CNCc3cccc4c3OCO4)ccn2)CC1 [Example 15]
3,800 nM,c1cc(CCNCCc2ccnc(N3CCCCC3)c2)c2c(c1)OCO2 [Example 34]
4,2010 nM,CC1CCN(c2cc(CNCc3cccc4c3OCO4)ccn2)CC1 [Example 12]
5,1190 nM,c1cc(CNCc2ccnc(N3CCSCC3)c2)c2c(c1)OCO2 [Example 22]
6,13000 nM,c1cc(CNCc2ccnc(N3CCOCC3)c2)c2c(c1)OCO2 [Example 2]
7,2010 nM,CCC1CCCN(c2cc(CNCc3cccc4c3OCO4)ccn2)C1 (centres unmarked) [Example 18]
8,2530 nM,CC1CC(C)CN(c2cc(CNCc3cccc4c3OCO4)ccn2)C1 (centres unmarked) [Example 16]
9,6500 nM,CSc1cc(CNCc2cccc3c2OCO3)ccn1 [Example 29]
10,720 nM,CC1(C)CCCN(c2cc(CNCc3cccc4c3OCO4)ccn2)C1 [Example 17]
11,330 nM,CC1CCCCN1c1cc(CNCc2cccc3c2OCO3)ccn1 (centres unmarked) [Example 14]
12,600 nM,CC1CCCN(c2cc(CNCc3cccc4c3OCO4)ccn2)C1 (centres unmarked) [Example 13]

# The remaining lines, values behind:
row,SMILES,EC50
1,COc1cccc(CNCc2ccnc(N3CCCCC3)c2)c1OC [Example 23],760 nM
2,COc1ccc(CNCc2cccc(N3CCCC3)c2)cc1 [Example 64],1770 nM
3,COc1ccc(CNCc2ccnc(N3CCSCC3)c2)cc1 [Example 58],15800 nM
4,CC(C)C(NCc1cccc2c1OCO2)c1ccnc(N2CCCCC2)c1 (centres unmarked) [Example 11],8350 nM
5,COc1ccc(CNCc2ccnc(N3CCCCC3)c2)cc1 [Example 27],100 nM and ≤ 1000 nM
6,CC(NCc1cccc2c1OCO2)c1ccnc(N2CCCCC2)c1 (centres unmarked) [Example 8],150 nM
7,c1ccc(CNCc2ccnc(N3CCCCC3)c2)cc1 [Example 39],60 nM
8,COc1ccc(CNCc2ccnc(N3CCCCC3)c2)cc1 [Compound 87],6.95 nM
9,"CCNC(=O)[C@@H]1C[C@H](C)CC[C@H]1C(C)C [WS-3, L-menthanecarboxylic acid-N-ethylamide, reference compound]",1720 nM
10,CCOc1cccc(CNCc2ccnc(N3CCCCC3)c2)c1OCC [Example 25],5860 nM
11,Cc1ccc(CNCc2ccnc(N3CCCCC3)c2)cc1 [Example 41],150 nM
12,COc1cccc(CNCc2ccnc(N3CCCCC3)c2)c1 [Example 49],600 nM
13,CCOc1cccc(CNCc2ccnc(N3CCCCC3)c2)c1OC [Example 24],1110 nM

# System: oral cavity
# Assay: Sensory tasting of cooling intensity by trained panellists
# Type: in vivo, human
# Conditions: 5 ppm in 5% sugar solution, tasted 40 seconds, rated after one minute, scale 1 (very weak) to 9 (very strong)
# Experimental: In order to quantify the cooling effect, comparative tests are carried out using menthan-3-carboxylic acid-N-ethylamide as a reference. For these comparative tests, the skilled person replaces the compound or compounds to be used according to the invention with menthan-3-carboxylic acid-N-ethylamide (also referred to as WS-3). Then the intensities of the cooling effects of the respective compounds or active substances are sensory evaluated by trained panellists (n=10 to 11) as described below and compared with each other.
# The investigation of the cooling intensity was carried out as follows: Test solutions containing 5 ppm of the compounds of the invention were each tasted in a 5% sugar solution as well as a corresponding solution containing 30 ppm of the reference substance WS-3. […] The corresponding test solutions were tasted by the panellists for a time of exactly 40 seconds, rinsing the entire oral cavity with the corresponding test solution and then spitting out the sample or reference solution. Following the tasting, the test persons rated the respective cooling intensity after one minute according to a scale from 1 (very weak) to 9 (very strong).
row,SMILES,Cooling intensity
1,COc1ccc(C(C)NCc2ccnc(N3CCCCC3)c2)cc1 (centres unmarked) [Compound 85],2.1
